Results as given in the supplement of paper PMC10307832.

What was measured:
Experiment in all cases: relative viability (nuclei count vs DMSO), 5 days (fraction); higher = more cells survive
AZ628 + AZD7762 = compound: CC1=C(C=C(C=C1)NC(=O)C2=CC(=CC=C2)C(C)(C)C#N)NC3=CC4=C(C=C3)N=CN(C4=O)C [AZ628] + NC(=O)Nc1cc(-c2cccc(F)c2)sc1C(=O)N[C@H]1CCCNC1 [AZD7762] (partner 0.2 µM)
In short: (§1)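 The day after seeding in 1536-well plates, lung cancer cell lines were treated by pin tool with a single drug, or with a fixed anchor-drug dose together with five library-drug doses (not always all listed) in √10 steps. After 5 days, a combined fix-and-stain solution (final 0.05% Triton X-100, 1% formaldehyde, 1 ug/ml Hoechst) was added. Nuclei counted on 4× images gave relative viability as treated counts over vehicle counts, reported as the median of duplicate plates.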

QS11 + Trametinib = compound: C1CC2=C(C1)C=C(C=C2)OC3=NC(=C4C(=N3)N(C=N4)CC5=CC=C(C=C5)C6=CC=CC=C6)N[C@@H](CC7=CC=CC=C7)CO [QS11] + CC(=O)Nc1cccc(-n2c(=O)n(C3CC3)c(=O)c3c(Nc4ccc(I)cc4F)n(C)c(=O)c(C)c32)c1 [Trametinib] (partner 0.02 µM)
In short: as §1

AZ628 + Luminespib = compound: CC1=C(C=C(C=C1)NC(=O)C2=CC(=CC=C2)C(C)(C)C#N)NC3=CC4=C(C=C3)N=CN(C4=O)C [AZ628] + CCNC(=O)c1noc(-c2cc(C(C)C)c(O)cc2O)c1-c1ccc(CN2CCOCC2)cc1 [Luminespib] (partner 0.01 µM)
In short: as §1

QS11 + Pemetrexed = compound: C1CC2=C(C1)C=C(C=C2)OC3=NC(=C4C(=N3)N(C=N4)CC5=CC=C(C=C5)C6=CC=CC=C6)N[C@@H](CC7=CC=CC=C7)CO [QS11] + Nc1nc2[nH]cc(CCc3ccc(C(=O)N[C@@H](CCC(=O)O)C(=O)O)cc3)c2c(=O)[nH]1 [Pemetrexed] (partner 0.2 µM)
In short: as §1

A-427
relative viability (AZ628 + AZD7762; first compound 0.08 µM): 0.591
relative viability (AZ628 + AZD7762; first compound 0.253 µM): 0.569
relative viability (AZ628 + AZD7762; first compound 0.8 µM): 0.6
relative viability (AZ628 + AZD7762; first compound 2.53 µM): 0.524
relative viability (AZ628 + AZD7762; first compound 8 µM): 0.352
relative viability (QS11 + Trametinib; first compound 0.08 µM): 0.778
relative viability (QS11 + Trametinib; first compound 0.253 µM): 0.78
relative viability (QS11 + Trametinib; first compound 2.53 µM): 0.805
relative viability (QS11 + Trametinib; first compound 8 µM): 0.767
relative viability (AZ628 + Luminespib; first compound 0.08 µM): 1.08
relative viability (AZ628 + Luminespib; first compound 0.253 µM): 0.805
relative viability (AZ628 + Luminespib; first compound 0.8 µM): 0.76
relative viability (AZ628 + Luminespib; first compound 2.53 µM): 0.775
relative viability (AZ628 + Luminespib; first compound 8 µM): 0.555
relative viability (QS11 + Pemetrexed; first compound 0.08 µM): 0.967
relative viability (QS11 + Pemetrexed; first compound 0.253 µM): 0.985
relative viability (QS11 + Pemetrexed; first compound 2.53 µM): 0.989
relative viability (QS11 + Pemetrexed; first compound 8 µM): 0.979

BEN
relative viability (AZ628 + AZD7762; first compound 0.08 µM): 0.678
relative viability (AZ628 + AZD7762; first compound 0.253 µM): 0.593
relative viability (AZ628 + AZD7762; first compound 0.8 µM): 0.653
relative viability (AZ628 + AZD7762; first compound 2.53 µM): 0.614
relative viability (AZ628 + AZD7762; first compound 8 µM): 0.587
relative viability (QS11 + Trametinib; first compound 0.08 µM): 1.06
relative viability (QS11 + Trametinib; first compound 0.253 µM): 1.11
relative viability (QS11 + Trametinib; first compound 0.8 µM): 1.08
relative viability (QS11 + Trametinib; first compound 2.53 µM): 1.12
relative viability (QS11 + Trametinib; first compound 8 µM): 1.11
relative viability (AZ628 + Luminespib; first compound 0.08 µM): 0.51
relative viability (AZ628 + Luminespib; first compound 0.253 µM): 0.251
relative viability (AZ628 + Luminespib; first compound 0.8 µM): 0.485
relative viability (AZ628 + Luminespib; first compound 2.53 µM): 0.938
relative viability (AZ628 + Luminespib; first compound 8 µM): 0.221
relative viability (QS11 + Pemetrexed; first compound 0.08 µM): 0.638
relative viability (QS11 + Pemetrexed; first compound 0.253 µM): 0.764
relative viability (QS11 + Pemetrexed; first compound 0.8 µM): 0.911
relative viability (QS11 + Pemetrexed; first compound 2.53 µM): 0.852
relative viability (QS11 + Pemetrexed; first compound 8 µM): 0.815

CAL-12T
relative viability (AZ628 + AZD7762; first compound 0.08 µM): 0.806
relative viability (AZ628 + AZD7762; first compound 0.253 µM): 0.622
relative viability (AZ628 + AZD7762; first compound 0.8 µM): 0.561
relative viability (AZ628 + AZD7762; first compound 2.53 µM): 0.656
relative viability (AZ628 + AZD7762; first compound 8 µM): 0.501
relative viability (QS11 + Trametinib; first compound 0.08 µM): 0.313
relative viability (QS11 + Trametinib; first compound 0.253 µM): 0.328
relative viability (QS11 + Trametinib; first compound 0.8 µM): 0.355
relative viability (QS11 + Trametinib; first compound 2.53 µM): 0.367
relative viability (QS11 + Trametinib; first compound 8 µM): 0.358
relative viability (AZ628 + Luminespib; first compound 0.08 µM): 0.591
relative viability (AZ628 + Luminespib; first compound 0.253 µM): 0.371
relative viability (AZ628 + Luminespib; first compound 0.8 µM): 0.376
relative viability (AZ628 + Luminespib; first compound 2.53 µM): 0.465
relative viability (AZ628 + Luminespib; first compound 8 µM): 0.466
relative viability (QS11 + Pemetrexed; first compound 0.08 µM): 1.26
relative viability (QS11 + Pemetrexed; first compound 0.253 µM): 1.37
relative viability (QS11 + Pemetrexed; first compound 0.8 µM): 1.05
relative viability (QS11 + Pemetrexed; first compound 2.53 µM): 1.24
relative viability (QS11 + Pemetrexed; first compound 8 µM): 1.04

ChaGo-K-1
relative viability (AZ628 + AZD7762; first compound 0.08 µM): 0.935
relative viability (AZ628 + AZD7762; first compound 0.253 µM): 0.821
relative viability (AZ628 + AZD7762; first compound 0.8 µM): 0.805
relative viability (AZ628 + AZD7762; first compound 2.53 µM): 0.853
relative viability (AZ628 + AZD7762; first compound 8 µM): 0.663
relative viability (QS11 + Trametinib; first compound 0.253 µM): 0.984
relative viability (QS11 + Trametinib; first compound 0.8 µM): 0.972
relative viability (QS11 + Trametinib; first compound 2.53 µM): 0.886
relative viability (QS11 + Trametinib; first compound 8 µM): 0.931
relative viability (AZ628 + Luminespib; first compound 0.08 µM): 0.546
relative viability (AZ628 + Luminespib; first compound 0.253 µM): 0.642
relative viability (AZ628 + Luminespib; first compound 0.8 µM): 0.456
relative viability (AZ628 + Luminespib; first compound 2.53 µM): 0.504
relative viability (AZ628 + Luminespib; first compound 8 µM): 0.461
relative viability (QS11 + Pemetrexed; first compound 0.253 µM): 0.269
relative viability (QS11 + Pemetrexed; first compound 0.8 µM): 0.256
relative viability (QS11 + Pemetrexed; first compound 2.53 µM): 0.263
relative viability (QS11 + Pemetrexed; first compound 8 µM): 0.255

EKVX
relative viability (AZ628 + AZD7762; first compound 0.08 µM): 0.71
relative viability (AZ628 + AZD7762; first compound 0.253 µM): 0.755
relative viability (AZ628 + AZD7762; first compound 0.8 µM): 0.558
relative viability (AZ628 + AZD7762; first compound 2.53 µM): 0.704
relative viability (AZ628 + AZD7762; first compound 8 µM): 0.64
relative viability (QS11 + Trametinib; first compound 0.08 µM): 0.288
relative viability (QS11 + Trametinib; first compound 0.253 µM): 0.618
relative viability (QS11 + Trametinib; first compound 0.8 µM): 0.3
relative viability (QS11 + Trametinib; first compound 2.53 µM): 0.306
relative viability (QS11 + Trametinib; first compound 8 µM): 0.321
relative viability (AZ628 + Luminespib; first compound 0.08 µM): 0.892
relative viability (AZ628 + Luminespib; first compound 0.253 µM): 0.857
relative viability (AZ628 + Luminespib; first compound 0.8 µM): 0.946
relative viability (AZ628 + Luminespib; first compound 2.53 µM): 0.954
relative viability (AZ628 + Luminespib; first compound 8 µM): 0.864
relative viability (QS11 + Pemetrexed; first compound 0.08 µM): 0.385
relative viability (QS11 + Pemetrexed; first compound 0.253 µM): 0.412
relative viability (QS11 + Pemetrexed; first compound 0.8 µM): 0.412
relative viability (QS11 + Pemetrexed; first compound 2.53 µM): 0.356
relative viability (QS11 + Pemetrexed; first compound 8 µM): 0.345

EMC-BAC-2
relative viability (AZ628 + AZD7762; first compound 0.08 µM): 1.16
relative viability (AZ628 + AZD7762; first compound 0.253 µM): 1.09
relative viability (AZ628 + AZD7762; first compound 0.8 µM): 1.18
relative viability (AZ628 + AZD7762; first compound 2.53 µM): 1.13
relative viability (AZ628 + AZD7762; first compound 8 µM): 1.28
relative viability (QS11 + Trametinib; first compound 0.08 µM): 0.814
relative viability (QS11 + Trametinib; first compound 0.253 µM): 0.954
relative viability (QS11 + Trametinib; first compound 0.8 µM): 0.573
relative viability (QS11 + Trametinib; first compound 2.53 µM): 0.885
relative viability (QS11 + Trametinib; first compound 8 µM): 0.804
relative viability (AZ628 + Luminespib; first compound 0.08 µM): 1.22
relative viability (AZ628 + Luminespib; first compound 0.253 µM): 1.03
relative viability (AZ628 + Luminespib; first compound 0.8 µM): 1.16
relative viability (AZ628 + Luminespib; first compound 2.53 µM): 1.07
relative viability (AZ628 + Luminespib; first compound 8 µM): 1.12
relative viability (QS11 + Pemetrexed; first compound 0.08 µM): 0.461
relative viability (QS11 + Pemetrexed; first compound 0.253 µM): 0.463
relative viability (QS11 + Pemetrexed; first compound 0.8 µM): 0.409
relative viability (QS11 + Pemetrexed; first compound 2.53 µM): 0.594
relative viability (QS11 + Pemetrexed; first compound 8 µM): 0.445

EPLC-272H
relative viability (AZ628 + AZD7762; first compound 0.08 µM): 0.34
relative viability (AZ628 + AZD7762; first compound 0.253 µM): 0.168
relative viability (AZ628 + AZD7762; first compound 0.8 µM): 0.165
relative viability (AZ628 + AZD7762; first compound 2.53 µM): 0.22
relative viability (AZ628 + AZD7762; first compound 8 µM): 0.236
relative viability (QS11 + Trametinib; first compound 0.253 µM): 0.32
relative viability (QS11 + Trametinib; first compound 0.8 µM): 0.3
relative viability (QS11 + Trametinib; first compound 2.53 µM): 0.28
relative viability (QS11 + Trametinib; first compound 8 µM): 0.3
relative viability (AZ628 + Luminespib; first compound 0.08 µM): 0.252
relative viability (AZ628 + Luminespib; first compound 0.253 µM): 0.2
relative viability (AZ628 + Luminespib; first compound 0.8 µM): 0.527
relative viability (AZ628 + Luminespib; first compound 2.53 µM): 0.171
relative viability (AZ628 + Luminespib; first compound 8 µM): 0.235
relative viability (QS11 + Pemetrexed; first compound 0.08 µM): 0.306
relative viability (QS11 + Pemetrexed; first compound 0.253 µM): 0.366
relative viability (QS11 + Pemetrexed; first compound 0.8 µM): 0.344
relative viability (QS11 + Pemetrexed; first compound 2.53 µM): 0.313
relative viability (QS11 + Pemetrexed; first compound 8 µM): 0.315

H3255
relative viability (AZ628 + AZD7762; first compound 0.08 µM): 0.852
relative viability (AZ628 + AZD7762; first compound 0.253 µM): 0.726
relative viability (AZ628 + AZD7762; first compound 0.8 µM): 0.806
relative viability (AZ628 + AZD7762; first compound 2.53 µM): 1.01
relative viability (AZ628 + AZD7762; first compound 8 µM): 0.684
relative viability (QS11 + Trametinib; first compound 0.08 µM): 0.577
relative viability (QS11 + Trametinib; first compound 0.253 µM): 0.703
relative viability (QS11 + Trametinib; first compound 2.53 µM): 0.631
relative viability (QS11 + Trametinib; first compound 8 µM): 0.585
relative viability (AZ628 + Luminespib; first compound 0.08 µM): 1.03
relative viability (AZ628 + Luminespib; first compound 0.253 µM): 0.891
relative viability (AZ628 + Luminespib; first compound 0.8 µM): 0.929
relative viability (AZ628 + Luminespib; first compound 2.53 µM): 1
relative viability (AZ628 + Luminespib; first compound 8 µM): 0.556
relative viability (QS11 + Pemetrexed; first compound 0.08 µM): 0.578
relative viability (QS11 + Pemetrexed; first compound 0.253 µM): 0.632
relative viability (QS11 + Pemetrexed; first compound 0.8 µM): 0.532
relative viability (QS11 + Pemetrexed; first compound 2.53 µM): 0.562
relative viability (QS11 + Pemetrexed; first compound 8 µM): 0.53
